US6844435B2, “Heterocyclic compounds useful as inhibitors of tyrosine kinases” (Boehringer Ingelheim Pharmaceuticals, Inc., priority 2000, dated 2005)

Row | melting point | SMILES
1 | > 300 °C | CC(C)=C(C)c1nc2ccc3nc(Nc4c(Cl)cccc4Cl)n(C)c3c2c(=O)[nH]1 [Example 63]
2 | 257 to 260 °C | CCCCCc1nc2ccc3nc(Nc4c(Cl)cccc4Cl)n(C)c3c2c(=O)[nH]1 [Example 64]
3 | 168 to 170 °C | Cn1c(Nc2c(Cl)cccc2Cl)nc2ccc3nc(C4=CC(N5CCN(C(=O)OC(C)(C)C)CC5)CC4)[nH]c(=O)c3c21 (stereo not shown) [Example 65]
4 | 285 °C | Cn1c(Nc2c(Cl)cccc2Cl)nc2ccc3nc(C4=CC(O)CC4)[nH]c(=O)c3c21 (stereo not shown) [Example 66]
5 | 189 °C | Cn1c(Nc2c(Cl)cccc2Cl)nc2ccc3nc(-c4cccc(S(=O)(=O)N5CCN(C(=O)OC(C)(C)C)CC5)c4)[nH]c(=O)c3c21 [Example 67]
6 | 210 °C | Cn1c(Nc2c(Cl)cccc2Cl)nc2ccc3nc(-c4cccc(S(=O)(=O)N5CCNCC5)c4)[nH]c(=O)c3c21 [Example 68]
7 | > 295 °C (dec.) | Cn1c(Nc2c(Cl)cccc2Cl)nc2ccc3nc(C4=CCC(C#N)C4)[nH]c(=O)c3c21 (stereo not shown) [Example 69]
8 | 288 to 290 °C | C/C(=C\c1cccc(C#N)c1)c1nc2ccc3nc(Nc4c(Cl)cccc4Cl)n(C)c3c2c(=O)[nH]1 [Example 70]
9 | 290 to 292 °C | C/C(=C\c1ccccc1[N+](=O)[O-])c1nc2ccc3nc(Nc4c(Cl)cccc4Cl)n(C)c3c2c(=O)[nH]1 [Example 71]
10 | > 215 °C (dec.) | CC(=O)C1CC=C(c2nc3ccc4nc(Nc5c(Cl)cccc5Cl)n(C)c4c3c(=O)[nH]2)C1 (stereo not shown) [Example 72]
11 | 209 °C | Cn1c(Nc2c(Cl)cccc2Cl)nc2ccc3nc(-c4csc([C@H]5CCCN5C(=O)OCc5ccccc5)n4)[nH]c(=O)c3c21 [Example 73]
12 | 163 to 169 °C | Cn1c(Nc2c(Cl)cccc2Cl)nc2ccc3nc(-c4csc([C@@H]5CCCC[C@H]5NC(=O)OCc5ccccc5)n4)[nH]c(=O)c3c21 [Example 75]
13 | 155 to 160 °C | Cn1c(Nc2c(Cl)cccc2Cl)nc2ccc3nc(-c4csc(CC5CCCN(C(=O)OCc6ccccc6)C5)n4)[nH]c(=O)c3c21 (stereo not shown) [Example 76]
14 | 295 to 300 °C (dec.) | Cn1c(Nc2c(Cl)cccc2Cl)nc2ccc3nc(-c4csc([C@@H]5CCCC[C@H]5N)n4)[nH]c(=O)c3c21 [Example 77]
15 | 161 to 166 °C | Cn1c(Nc2c(Cl)cccc2Cl)nc2ccc3nc(-c4csc(CC5CCCNC5)n4)[nH]c(=O)c3c21 (stereo not shown) [Example 78]
16 | 295 °C (dec.) | Cc1nc(-c2nc3ccc4nc(Nc5c(Cl)cccc5Cl)n(C)c4c3c(=O)[nH]2)cs1 [Example 79]
17 | 310 to 313 °C | C/C(=C\c1ccccc1N)c1nc2ccc3nc(Nc4c(Cl)cccc4Cl)n(C)c3c2c(=O)[nH]1 [Example 80]
18 | > 300 °C | Cn1c(Nc2c(Cl)cccc2Cl)nc2ccc3nc(C4=CC(=O)CC4)[nH]c(=O)c3c21 [Example 81]
19 | 206 to 208 °C | Cn1c(Nc2c(Cl)cccc2Cl)nc2ccc3nc(C4=CCN(C(=O)OC(C)(C)C)C4)[nH]c(=O)c3c21 [Example 83]

Row | melting point | SMILES
20 | > 300 °C (dec.) | C/C(=C\c1cccc(N)c1)c1nc2ccc3nc(Nc4c(Cl)cccc4Cl)n(C)c3c2c(=O)[nH]1 [Example 84]
21 | 246 °C (dec.) | CC(=O)OCC(=O)N1CCN(S(=O)(=O)c2cccc(-c3nc4ccc5nc(Nc6c(Cl)cccc6Cl)n(C)c5c4c(=O)[nH]3)c2)CC1 [Example 85]
22 | 240 to 241 °C (dec.) | Cn1c(Nc2c(Cl)cccc2Cl)nc2ccc3nc(C4=CCNC4)[nH]c(=O)c3c21 [Example 86]
23 | 126 to 128 °C | CCCCCC1NC(=O)c2c(ccc3nc(Nc4c(Cl)cccc4Cl)n(C)c23)N1C (stereo not shown) [Example 87]
24 | 228 to 230 °C | CN1c2ccc3nc(Nc4c(Cl)cccc4Cl)n(C)c3c2C(=O)NC1c1ccccc1 (stereo not shown) [Example 88]
25 | 197 to 205 °C | C/C(=C\c1cccc(CN)c1)c1nc2ccc3nc(Nc4c(Cl)cccc4Cl)n(C)c3c2c(=O)[nH]1 [Example 89]
26 | 215 °C | Cn1c(Nc2c(Cl)cccc2Cl)nc2ccc3nc(-c4cccc(S(=O)(=O)N5CCN(C(=N)N)CC5)c4)[nH]c(=O)c3c21 [Example 90]
27 | > 300 °C | Cn1c(Nc2c(Cl)cccc2Cl)nc2ccc3nc(-c4cccc(S(=O)(=O)N5CCN(C(=O)CO)CC5)c4)[nH]c(=O)c3c21 [Example 91]
28 | > 300 °C | [H]/N=C(/N)c1cccc(/C=C(\C)c2nc3ccc4nc(Nc5c(Cl)cccc5Cl)n(C)c4c3c(=O)[nH]2)c1 [Example 92]
29 | 210 to 215 °C | Cn1c(Nc2c(Cl)cccc2Cl)nc2ccc3nc(C4=CC5CN(C(=O)OC(C)(C)C)CC5C4)[nH]c(=O)c3c21 (stereo not shown) [Example 94]
30 | 265 °C (dec.) | Cn1c(Nc2c(Cl)cccc2Cl)nc2ccc3nc(C4=CC5CNCC5C4)[nH]c(=O)c3c21 (stereo not shown) [Example 95]
31 | 190 °C | Cn1c(Nc2c(Cl)cccc2Cl)nc2ccc3nc(-c4ccc(S(=O)(=O)N5CCN(C(=O)OC(C)(C)C)CC5)cc4)[nH]c(=O)c3c21 [Example 96]
32 | 290 °C (dec.) | Cn1c(Nc2c(Cl)cccc2Cl)nc2ccc3nc(-c4csc([C@H]5CCCN5)n4)[nH]c(=O)c3c21 [Example 98]
33 | 195 to 200 °C (dec.) | C/C(=C\c1cc(N)cc(N)c1)c1nc2ccc3nc(Nc4c(Cl)cccc4Cl)n(C)c3c2c(=O)[nH]1 [Example 99]
34 | 246 °C | Cn1c(Nc2c(Cl)cccc2Cl)nc2ccc3nc(-c4ccc(S(=O)(=O)N5CCNCC5)cc4)[nH]c(=O)c3c21 [Example 100]
35 | 170 °C (dec.) | C/C(=C\c1cccc(NC(=N)N)c1)c1nc2ccc3nc(Nc4c(Cl)cccc4Cl)n(C)c3c2c(=O)[nH]1 [Example 101]
36 | 284 to 288 °C | C/C(=C\c1ccccc1C#N)c1nc2ccc3nc(Nc4c(Cl)cccc4Cl)n(C)c3c2c(=O)[nH]1 [Example 102]
37 | > 300 °C | C/C(=C\c1cc(N/C(=N\C(=O)OC(C)(C)C)NC(=O)OC(C)(C)C)cc(N/C(=N\C(=O)OC(C)(C)C)NC(=O)OC(C)(C)C)c1)c1nc2ccc3nc(Nc4c(Cl)cccc4Cl)[nH]c3c2c(=O)[nH]1 [Example 103]
